Data published in patent US8987195B2 (priority 2012, dated 2015).
Like-named read-outs stand apart in the source and are kept apart here.

Legend:
[1] = rcm bond
[2] = from Boc-(2S)-2-aminonon-8-enoyl-Hyp-(vinylACCA)-OMe?; rcm bond; 15-membered ring; Hoveyda-Grubbs 1st gen; DCM; 9.85 mM; 40.0 °C
[3] = tested on: HCV genotype 1b replicon; test: HCV replicon assay, genotype 1b replicon EC50; type: cell-based, Hepatitis C virus; settings: Hepatitis C virus, genotype 1b replicon; read-out: EC50 [gt-1b]
How it was run: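 Compound dilution series incubated 24-48 h, G418 absent, with HCV genotype 1b replicon cell lines kept under G418 selection beforehand. Luciferase signal or replicon RNA, by ^32P hybridization/protection or TaqMan normalized to cyclophilin A, was measured after washing and lysis. Four-parameter fitting against DMSO control gave EC50.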

[4] = biological target: HCV NS3/4A protease genotype 1b (Hepatitis C virus genotype 1b, UniProt P26663); test: HCV NS3/4A protease time-resolved fluorescence (TRF) assay, Ki against genotype 1b; type: biochemical; settings: IC50 [gt-1b] (nM), NS3/4A genotype 1b, enzyme 0.2 nM
How it was run: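 Enzyme 0.2 nM 1b / 0.4 nM A156T / 0.025 nM 3a; 30 min preinc. w/ cpd; 25 nM TRF peptide; 2.5 h RT; ex 340/em 615 time-delayed; 4-param IC50 → Ki = IC50/(1+[S]/KM).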

With `CC(C)(C)OC(=O)N[C@H]1CCCCC/C=C\[C@@H]2C[C@@]2(C(=O)NS(=O)(=O)C2(C)CC2)NC(=O)[C@@H]2C[C@]3(CCc4c(c(CO)nc5ccccc45)O3)CN2C1=O` the ring closure, yield of all isomers ([1]; from C=CCCCCC[C@H](NC(=O)OC(C)(C)C)C(=O)N1C[C@@]2(CCc3c(c(CO)nc4ccccc34)O2)C[C@H]1C(=O)N[C@]1(C(=O)NS(=O)(=O)C2(C)CC2)C[C@H]1C=C, Zhan's catalyst, DCE, 2.0 mM, 65.0 °C, 2.0 h) was 45.1%.
Compound `CCOC(=O)[C@@]12C[C@H]1C=CCCCCC[C@H](NC(=O)OC(C)(C)C)C(=O)N1C[C@@]3(CCc4c(c(C)nc5ccc(F)cc45)O3)C[C@H]1C(=O)N2` has a ring closure, yield of all isomers ([1]; from C=CCCCCC[C@H](NC(=O)OC(C)(C)C)C(=O)N1C[C@@]2(CCc3c(c(C)nc4ccc(F)cc34)O2)C[C@H]1C(=O)N[C@]1(C(=O)OCC)C[C@H]1C=C, Zhan's catalyst, DCE, 2.83 mM, 75.0 °C, 4.0 h) of 47%.
Work on `COC(=O)[C@@]12C[C@H]1/C=C\CCCCC[C@H](NC(=O)OC(C)(C)C)C(=O)N1C[C@H](O)C[C@H]1C(=O)N2` yielded a ring closure, isolated yield [2] of 74% and a ring closure, yield of all isomers ([1]; from C=CCCCCC[C@H](NC(=O)OC(C)(C)C)C(=O)N1C[C@H](O)C[C@H]1C(=O)N[C@]1(C(=O)OC)C[C@H]1C=C, Grubbs-Hoveyda 1st generation catalyst, DCM, 9.85 mM, 40.0 °C, 40.0 h) of 74%.
With `COc1ccc2nc(CO)c3c(c2c1Cl)CC[C@]1(C[C@H]2C(=O)N[C@]4(C(=O)NS(=O)(=O)C5(C)CC5)C[C@H]4C=CCCCCC[C@H](NC(=O)OC(C)(C)C)C(=O)N2C1)O3` the ring closure, yield of all isomers ([1]; from C=CCCCCC[C@H](NC(=O)OC(C)(C)C)C(=O)N1C[C@@]2(CCc3c(c(CO)nc4ccc(OC)c(Cl)c34)O2)C[C@H]1C(=O)N[C@]1(C(=O)NS(=O)(=O)C2(C)CC2)C[C@H]1C=C, Zhan's catalyst, DCE, 1.91 mM, 65.0 °C, 3.0 h) was 25.9%.
`Cc1nc2ccc(Cl)cc2c2c1O[C@]1(CC2)C[C@H]2C(=O)N[C@]3(C(=O)NS(=O)(=O)C4(C)CC4)C[C@H]3C=CCCCCC[C@H](NC(=O)OC(C)(C)C)C(=O)N2C1` showed a ring closure, yield of all isomers ([1]; from C=CCCCCC[C@H](NC(=O)OC(C)(C)C)C(=O)N1C[C@@]2(CCc3c(c(C)nc4ccc(Cl)cc34)O2)C[C@H]1C(=O)N[C@]1(C(=O)NS(=O)(=O)C2(C)CC2)C[C@H]1C=C, Zhan's catalyst, DCE, 2.4 mM, 75.0 °C, 0.5 h) of 71.6%.
`Cc1nc2ccc(OC(F)(F)F)cc2c2c1O[C@]1(CC2)C[C@H]2C(=O)N[C@]3(C(=O)NS(=O)(=O)C4(C)CC4)C[C@H]3C=CCCCCC[C@H](NC(=O)OC(C)(C)C)C(=O)N2C1` gave a ring closure, yield of all isomers ([1]; from C=CCCCCC[C@H](NC(=O)OC(C)(C)C)C(=O)N1C[C@@]2(CCc3c(c(C)nc4ccc(OC(F)(F)F)cc34)O2)C[C@H]1C(=O)N[C@]1(C(=O)NS(=O)(=O)C2(C)CC2)C[C@H]1C=C, Zhan's catalyst, DCE, 2.32 mM, 70.0 °C, 6.0 h) of 71%.
For `Cc1nc2ccccc2c2c1O[C@]1(CC2)C[C@H]2C(=O)N[C@]3(C(=O)NS(=O)(=O)C4(C)CC4)C[C@H]3C=CCCCCC[C@H](NC(=O)OC(C)(C)C)C(=O)N2C1`, the ring closure, yield of all isomers ([1]; from C=CCCCCC[C@H](NC(=O)OC(C)(C)C)C(=O)N1C[C@@]2(CCc3c(c(C)nc4ccccc34)O2)C[C@H]1C(=O)N[C@]1(C(=O)NS(=O)(=O)C2(C)CC2)C[C@H]1C=C, Zhan's catalyst, DCE, 2.5 mM, 65.0 °C, 7.0 h) was 62.9%.
In the case of `COc1ccc2nc(C3CC3)c3c(c2c1)CC[C@]1(C[C@H]2C(=O)N[C@]4(C(=O)NS(=O)(=O)C5(C)CC5)C[C@H]4/C=C\CCCCC[C@H](NC(=O)OC(C)(C)C)C(=O)N2C1)O3` [Example 16, tert-Butyl (2R,6S,13aS,14aR,16aS,Z)-5′-cyclopropyl-9′-methoxy-14a-(1-methylcyclopropylsulfonylcarbamoyl)-5,16-dioxo-1′,2′,3,5,6,7,8,9,10,11,13a,14,14a,15,16, 16a-hexadecahydro-1H-spiro[cyclopropa[e]pyrrolo[1,2-a][1,4]diazacyclopentadecine-2,3′-pyrano[2,3-c]quinoline]-6-ylcarbamate], the EC50 [3] is reported as 690 pM, the IC50 [4] is reported as 0.009 nM and the ring closure, yield of all isomers ([1]; from C=CCCCCC[C@H](NC(=O)OC(C)(C)C)C(=O)N1C[C@@]2(CCc3c(c(C4CC4)nc4ccc(OC)cc34)O2)C[C@H]1C(=O)N[C@]1(C(=O)NS(=O)(=O)C2(C)CC2)C[C@H]1C=C, Zhan's catalyst, DCE, 2.48 mM, 75.0 °C, 4.0 h) is reported as 82.6%.
`COCC1(S(=O)(=O)NC(=O)[C@@]23C[C@H]2/C=C\CCCCC[C@H](NC(=O)OC(C)(C)C)C(=O)N2C[C@@]4(CCc5c(c(C(F)(F)F)nc6ccc(OC)cc56)O4)C[C@H]2C(=O)N3)CC1` [Example 49, tert-Butyl ((2R,6S,13AS,14AR,16AS,Z)-9′-methoxy-14a-(((1-(methoxymethyl)cyclopropyl)sulfonyl)carbamoyl)-5,16-dioxo-5′-(trifluoromethyl)-1′,2′,3,5,6,7,8,9,10,11, 13A,14,14A,15,16,16A-hexadecahydro-1H-spiro[cyclopropa[e]pyrrolo[1,2-A][1,4]diazacyclopentadecine-2,3′-pyrano[2,3-c]quinolin]-6-yl)carbamate] showed an EC50 [3] of 9130 pM, an IC50 [4] of 0.014 nM and a ring closure, yield of all isomers ([1]; from C=CCCCCC[C@H](NC(=O)OC(C)(C)C)C(=O)N1C[C@@]2(CCc3c(c(C(F)(F)F)nc4ccc(OC)cc34)O2)C[C@H]1C(=O)N[C@]1(C(=O)NS(=O)(=O)C2(COC)CC2)C[C@H]1C=C, Zhan's catalyst, DCE, 2.9 mM, 80.0 °C, 4.0 h) of 33%.
